How the values were obtained:
Type in all cases: functional, organism-based
[1] = test system: Plasmodium falciparum; experiment: Antimalarial activity against Plasmodium falciparum W2
[2] = test system: Plasmodium falciparum; experiment: Antimalarial activity against Plasmodium falciparum Dd2
[3] = test system: Plasmodium falciparum; experiment: Antimalarial activity against Plasmodium falciparum HB3

Structure (SMILES): CCN(CC)CCCC(C)Nc1ccnc2cc(Cl)ccc12 (stereo not drawn) [CHLOROQUINE]
- IC90 [1]: 802 nM
- IC90 [2]: 167 nM
- IC90 [3]: 45.7 nM
